Test results published in PMC9228270, “Design, Synthesis, In Silico Studies and Inhibitory Activity towards Bcr-Abl, BTK and FLT3-ITD of New 2,6,9-Trisubstituted Purine Derivatives as Potential Agents for the Treatment of Leukaemia” (Pharmaceutics, 2022).
Several values for one entry are separate records, joined by “and”; a condition that tells them apart may be missing. Equal entries are not always repeated.

Tests used:
[1] = target: Bcr-Abl1 (Homo sapiens, UniProt P00519); assay: Recombinant kinase radioassay, Abl; assay type: biochemical; settings: ATP 1 µM, at least three independent experiments, range 0.01–100 µM
[2] = target: T1, BTK (Homo sapiens, UniProt Q06187); assay: Recombinant kinase radioassay, BTK; assay type: biochemical; settings: recombinant kinase, radioassay, ATP 15 µM; at least three independent experiments, range 0.01–100 µM; read-out: IC50 BTK
T1 construct: purchased ProQinase
Method in brief: (§1)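 Radiometric kinase assay: 0.05 µCi [γ-33P]ATP in HEPES pH 7.5 buffer with Mg2+/Mn2+, vanadate, DTT. Commercial BTK with 100 µM poly(Glu:Tyr 4:1), 15 µM ATP. In-house Cdk-2/cyclin E with 1 mg/mL histone H1, 15 µM ATP. H3PO4 stop, phosphocellulose capture, phosphorimager read.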

[3] = target: T2, FLT3-ITD (Homo sapiens, UniProt P36888, ITD); assay: Recombinant kinase radioassay, FLT3-ITD; assay type: biochemical; settings: recombinant kinase, radioassay; at least three independent experiments, range 0.01–100 µM; read-out: IC50 FLT3-ITD
T2 sequence (P36888 27-993): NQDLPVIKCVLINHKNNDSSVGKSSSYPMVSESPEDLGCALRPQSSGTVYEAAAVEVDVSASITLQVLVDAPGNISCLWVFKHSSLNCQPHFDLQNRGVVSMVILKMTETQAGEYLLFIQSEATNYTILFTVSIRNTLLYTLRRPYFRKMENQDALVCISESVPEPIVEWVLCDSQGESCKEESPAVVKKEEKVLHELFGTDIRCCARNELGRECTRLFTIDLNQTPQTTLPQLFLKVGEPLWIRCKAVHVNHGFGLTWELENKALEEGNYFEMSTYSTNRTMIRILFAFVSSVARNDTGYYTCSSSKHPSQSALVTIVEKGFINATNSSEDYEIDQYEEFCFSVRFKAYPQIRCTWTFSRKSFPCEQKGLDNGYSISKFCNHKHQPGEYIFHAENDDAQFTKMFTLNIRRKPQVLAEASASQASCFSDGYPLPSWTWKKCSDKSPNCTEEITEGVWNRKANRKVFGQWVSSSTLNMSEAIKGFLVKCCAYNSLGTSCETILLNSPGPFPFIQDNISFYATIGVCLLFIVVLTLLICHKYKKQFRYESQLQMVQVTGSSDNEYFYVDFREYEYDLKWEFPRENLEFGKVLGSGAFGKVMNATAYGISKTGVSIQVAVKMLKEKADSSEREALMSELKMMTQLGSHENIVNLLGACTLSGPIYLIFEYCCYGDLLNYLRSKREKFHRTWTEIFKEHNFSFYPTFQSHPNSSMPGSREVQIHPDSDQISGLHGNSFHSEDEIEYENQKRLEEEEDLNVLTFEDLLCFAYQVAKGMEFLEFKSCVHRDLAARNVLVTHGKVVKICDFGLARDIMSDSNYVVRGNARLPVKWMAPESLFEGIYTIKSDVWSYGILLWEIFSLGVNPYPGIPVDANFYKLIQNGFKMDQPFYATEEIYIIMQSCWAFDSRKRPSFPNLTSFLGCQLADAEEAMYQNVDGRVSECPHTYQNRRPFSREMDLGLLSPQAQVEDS
Method in brief: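 FLT3-ITD kinase, purchased from ProQinase, was tested in a standard radioassay with 100 µM poly (Glu:Tyr; 4:1) substrate, 0.05 µCi [γ-^33P]ATP and test compound in buffer of 60 mM HEPES-NaOH pH 7.5, 3 mM MgCl2, 3 mM MnCl2, 3 µM Na orthovanadate, 1.2 mM DTT and 2.5 µg/50 µL PEG20.000. Phosphorylated substrate was separated on P-81 phosphocellulose and quantified with a FLA-7000 image analyser.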

[4] = target: T3, Cdk-2/cyclin E (Homo sapiens, UniProt P24941); assay: Recombinant kinase radioassay, Cdk-2/cyclin E; assay type: biochemical; settings: ATP 15 µM, at least three independent experiments, range 0.01–100 µM
T3 construct: made in house
Method in brief: as §1

[5] = system: K562; assay: Cytotoxicity assay (resazurin), K562; assay type: cell-based; settings: Homo sapiens, 72 h, three independent experiments, range 0.1 to 25 µM
Procedure: (§2) Cytotoxicity assays for the purines were quantified using the resazurin method, a dye to measure redox reactions occurring in the mitochondria of live cells. The cells were treated by tested compounds (in triplicate, six different doses) for 72 h.

[6] = system: HL-60; assay: Cytotoxicity assay (resazurin), HL-60; assay type: cell-based; settings: Homo sapiens, 72 h, three independent experiments, range 0.1 to 25 µM
Procedure: as §2

[7] = system: MV4-11; assay: Cytotoxicity assay (resazurin), MV4-11; assay type: cell-based; settings: Homo sapiens, 72 h, three independent experiments, range 0.1 to 25 µM
Procedure: as §2

[8] = system: Ramos; assay: Cytotoxicity assay (resazurin), Ramos; assay type: cell-based; settings: Homo sapiens, 72 h, three independent experiments, range 0.1 to 25 µM
Procedure: as §2

[9] = system: CEM; assay: Cytotoxicity assay (resazurin), CEM; assay type: cell-based; settings: Homo sapiens, CCRF-CEM, 72 h, three independent experiments, range 0.1 to 25 µM
Procedure: as §2

[10] = system: Bcr-Abl signalling in K562 cells; assay: Immunoblotting of Bcr-Abl downstream signalling in K562; assay type: cell-based; settings: 4 h
Procedure: (§3) Protein changes in the treated cells were analysed using immunoblotting. Briefly, cell lysates were separated on SDS-polyacrylamide gels and electroblotted onto nitrocellulose membranes. After blocking, overnight incubation with specific primary antibodies and incubation with peroxidase-conjugated secondary antibodies, the peroxidase activity was detected with Super-Signal West Pico reagents (Thermo Scientific, Waltham, MA, USA) using a CCD camera LAS-4000 (Fujifilm). The following specific antibodies were purchased from Cell Signalling: anti-FLT3 (clone 8F2), anti-phospho-FLT3 Y589/591 (clone 30D4), anti-STAT5 (clone D2O6Y), anti-phospho-STAT5 Y694, anti-ERK1/2, anti-phospho-ERK1/2 T202/Y204, anti-Akt (clone C67E7), anti-phospho-Akt S473 (clone D9E), anti-phospho-Bcr Y177, anti-CrkL (clone 32H4), anti-phospho-CrkL Y207, anti-BTK (clone C82B8), anti-phospho-BTK Y223, anti-PLCγ2, anti-phospho-PLCγ2 Y1217, and anti-PARP-1 (clone 46D11). Anti-α-tubulin (clone DM1A) was purchased from Sigma Aldrich.
(§4) Based on their inhibitory effects on recombinant kinases as well as cytotoxic effects in relevant cell line models, the purine derivatives 4i, 5b and 5j were selected for further experiments to confirm the expected molecular mechanism of action. The candidate compounds were tested to determine changes in signalling pathways downstream of the oncogenic kinases in cells. […]

[11] = system: K562 cells; assay: Flow cytometry cell cycle, K562; assay type: cell-based; settings: 24 h, sub-micromolar concentrations
Procedure: (§5) Cell cycle effects were measured using flow cytometric determination of DNA content. MV4-11 and K562 cells were treated with tested compounds for 24 h. After the staining with propidium iodide, the DNA content was analysed by flow cytometry using a 488 nm laser (BD FACS Verse with software BD FACSuite^TM, version 1.0.6.). The cell cycle distribution was analysed using ModFit LT (Verity Software House 5.0, Topsham, ME, USA).

[12] = system: caspase 3/7 activity in K562 cells; assay: Caspase-3/7 assay, K562; assay type: cell-based; settings: 24 h, at 1 µM
Procedure: (§6) MV4-11 and K562 cells were kept in a 96-well plate were treated with increasing concentrations of compound 4i and 5b for 24 h. After this period, caspase-3/7 assay buffer (150 mM HEPES pH 7.4, 450 mM NaCl, 150 mM KCl, 30 mM MgCl2, 1.2 mM EGTA, 1.5% Nonidet P40, 0.3% CHAPS, 30% sucrose, 30 mM DTT, and 3 mM PMSF) containing 150 µM peptide substrate Ac-DEVD-AMC (Enzo Life Sciences, Farmingdale, NY, USA) was added, and after 2 h incubation, the fluorescence of AMC was measured using a Fluoroskan Ascent microplate reader (Labsystems) at 346 nm/442 nm (excitation/emission).

[13] = system: PARP-1 cleavage in K562; assay: Immunoblotting of PARP-1 cleavage, K562; assay type: cell-based; settings: K562 cells, 4 h
Procedure: as §3, with “Anti-α-tubulin (clone DM1A) was purchased from Sigma Aldrich.” left out
(§7) Finally, we analysed the mechanism of cell death induced by the prepared compounds 4i and 5b. Proteolytic cleavage of PARP-1—a well-established protein involved in apoptosis—was analysed in K562 and MV4-11 treated with respective compounds for 4 h. […] The PARP-1 fragment was not detected in MV4-11 cells treated with 5b because the compound was not effective in inducing apoptosis after 4 h of treatment (Figure 14B).

[14] = system: BTK signalling in Ramos cells; assay: Immunoblotting of BTK signalling in anti-IgM-stimulated Ramos; assay type: cell-based; settings: immunoglobulin M-activated Ramos cells, 4 h, dose-dependent
Procedure: as §3, §4

[15] = system: FLT3-ITD signalling in MV4-11 cells; assay: Immunoblotting of FLT3-ITD-dependent pathway in MV4-11; assay type: cell-based; settings: 4 h
Procedure: as §3, §4

[16] = system: MV4-11 cells; assay: Flow cytometry cell cycle, MV4-11; assay type: cell-based; settings: 24 h, sub-micromolar concentrations
Procedure: as §5

[17] = system: caspase 3/7 activity in MV4-11 cells; assay: Caspase-3/7 assay, MV4-11; assay type: cell-based; settings: 24 h
Procedure: as §6

[18] = system: PARP-1 cleavage in MV4-11; assay: Immunoblotting of PARP-1 cleavage, MV4-11; assay type: cell-based; settings: MV4-11 cells, 4 h
Procedure: as §3, with “Anti-α-tubulin (clone DM1A) was purchased from Sigma Aldrich.” left out
as §7

T1 sequence (Q06187 whole entry): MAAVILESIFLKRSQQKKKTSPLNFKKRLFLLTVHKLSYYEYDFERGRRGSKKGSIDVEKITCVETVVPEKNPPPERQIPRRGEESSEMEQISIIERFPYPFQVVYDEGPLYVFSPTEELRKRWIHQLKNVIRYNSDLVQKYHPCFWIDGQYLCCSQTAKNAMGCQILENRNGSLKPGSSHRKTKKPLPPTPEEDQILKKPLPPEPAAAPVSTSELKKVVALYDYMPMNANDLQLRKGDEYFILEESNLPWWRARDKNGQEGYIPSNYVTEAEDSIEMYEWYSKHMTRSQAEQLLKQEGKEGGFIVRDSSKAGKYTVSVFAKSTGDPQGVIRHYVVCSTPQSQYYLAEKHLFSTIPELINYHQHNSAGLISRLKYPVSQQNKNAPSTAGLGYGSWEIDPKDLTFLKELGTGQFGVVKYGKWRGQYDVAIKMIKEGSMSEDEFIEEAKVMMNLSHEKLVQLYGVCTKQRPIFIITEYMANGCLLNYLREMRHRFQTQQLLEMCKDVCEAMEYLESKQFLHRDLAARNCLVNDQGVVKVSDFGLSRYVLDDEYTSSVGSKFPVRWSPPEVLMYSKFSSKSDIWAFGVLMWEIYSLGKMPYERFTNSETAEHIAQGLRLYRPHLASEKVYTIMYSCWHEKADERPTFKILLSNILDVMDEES
Bcr-Abl1, sequence (P00519 27-1130): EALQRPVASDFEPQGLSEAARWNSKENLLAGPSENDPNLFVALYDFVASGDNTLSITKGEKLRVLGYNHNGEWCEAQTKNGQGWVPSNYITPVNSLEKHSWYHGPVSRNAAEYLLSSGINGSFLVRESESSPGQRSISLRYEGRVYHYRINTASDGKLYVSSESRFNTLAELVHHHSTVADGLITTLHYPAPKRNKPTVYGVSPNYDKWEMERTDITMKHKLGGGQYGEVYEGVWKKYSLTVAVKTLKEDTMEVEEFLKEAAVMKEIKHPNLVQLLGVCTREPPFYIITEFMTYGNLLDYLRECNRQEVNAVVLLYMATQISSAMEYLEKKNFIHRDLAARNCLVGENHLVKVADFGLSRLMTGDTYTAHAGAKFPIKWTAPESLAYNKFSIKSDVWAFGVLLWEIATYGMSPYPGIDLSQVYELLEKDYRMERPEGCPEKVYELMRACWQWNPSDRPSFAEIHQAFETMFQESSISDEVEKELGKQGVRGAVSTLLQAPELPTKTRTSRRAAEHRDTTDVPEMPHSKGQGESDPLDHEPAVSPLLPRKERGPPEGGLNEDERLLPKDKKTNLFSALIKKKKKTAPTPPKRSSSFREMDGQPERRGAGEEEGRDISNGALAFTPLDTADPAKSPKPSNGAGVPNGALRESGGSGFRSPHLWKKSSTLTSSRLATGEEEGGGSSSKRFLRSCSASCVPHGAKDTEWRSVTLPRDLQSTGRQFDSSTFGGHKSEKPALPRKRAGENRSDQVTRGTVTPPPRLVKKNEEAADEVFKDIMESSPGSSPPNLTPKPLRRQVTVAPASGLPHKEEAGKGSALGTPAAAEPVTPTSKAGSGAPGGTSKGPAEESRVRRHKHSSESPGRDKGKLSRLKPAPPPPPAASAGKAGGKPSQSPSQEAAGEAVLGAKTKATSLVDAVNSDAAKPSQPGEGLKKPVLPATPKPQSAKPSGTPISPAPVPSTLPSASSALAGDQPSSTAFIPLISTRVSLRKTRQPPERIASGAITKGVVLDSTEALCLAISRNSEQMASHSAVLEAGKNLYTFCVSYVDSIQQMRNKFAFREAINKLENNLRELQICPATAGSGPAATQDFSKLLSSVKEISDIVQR

Row | IC50 [1] [µM] | IC50 [2] | IC50 [3] [µM] | IC50 [4] [µM] | Structure (SMILES) | GI50 [5] [µM] | GI50 [6] [µM] | GI50 [7] [µM] | GI50 [8] [µM] | GI50 [9] [µM] | further results
1 | 0.1 ± 0.03 | 0.91 ± 0.19 µM | 0.37 | 10.8 ± 1.6 | CN1CCN(c2ccc(Nc3nc(Nc4ccc(C#N)cc4)c4ncn(CC5CC5)c4n3)cc2)CC1 [Compound 4i, 4-((9-(Cyclopropylmethyl)-2-((4-(4-methylpiperazin-1-yl)phenyl)amino)-9H-purin-6-yl)amino)benzonitrile] | 1.03 ± 0.21 | 3.17 ± 0.57 | 0.89 ± 0.07 | 1.49 ± 0.05 | 1.85 ± 0.1 | Concentration from which autophosphorylation of Bcr (pBcr) is inhibited [10]: ≥ 0.08 µM; Level of phosphorylated STAT5 (pSTAT5) and CrkL (pCrkL) [10]: dose-dependently decreased; Cell cycle effect [11]: effectively induced G1 arrest; Relative caspase 3/7 activity [12]: nearly five-fold increase; 89 kDa fragment of PARP-1 [13]: increased levels
2 | > 100 | < 0.58 µM and 0.41 µM | 20.3 | 19 ± 1.55 | CCCCCCCCn1cnc2c(Nc3ccccc3)nc(Nc3ccc(N4CCN(C)CC4)cc3)nc21 [Compound 5j, N^2-(4-(4-Methylpiperazin-1-yl)phenyl)-9-octyl-N^6-phenyl-9H-purine-2,6-diamine] | 8.19 ± 0.06 | 1.25 ± 0.11 | 4.45 ± 1.48 | 14.2 ± 2.61 | 23.6 ± 2.01 | Levels of phosphorylated BTK and downstream targets PLCγ2 and Akt [14]: decreased; melting point: 171.3 to 173.5 °C
3 | > 50 | 3.78 ± 0.86 µM | 0.38 | 21.1 ± 1.91 | CC(C)CCn1cnc2c(Nc3cccc(F)c3)nc(Nc3ccc(N4CCN(C)CC4)cc3)nc21 [Compound 5b, N^6-(3-Fluorophenyl)-9-isopentyl-N^2-(4-(4-methylpiperazin-1-yl)phenyl)-9H-purine-2,6-diamine] | 18.6 ± 3.73 | 2.04 ± 0.58 | 2.89 ± 0.95 | 18.7 ± 3.1 | > 25 | Phosphorylation of STAT5 [15]: inhibited; Autophosphorylation of the oncogenic FLT3-ITD ([15]; increasing concentrations): clear suppression; Cell cycle effect [16]: effectively induced G1 arrest; Caspase 3/7 induction [17]: a higher concentration of 5b was required for caspase induction; PARP-1 fragment [18]: not detected
